Drawing on BindingDB's records for doi:10.1016/j.bmc.2004.09.055 (Crefsip, 2005), this text covers Ki for three compounds.

The target of this assay is Aspartate--tRNA ligase (Escherichia coli (strain K12), UniProt P21889). The assay is described as follows: Determination of the Inhibition Type and Constant (Ki). As to conditions: pH 7.5; 37 °C. The method, then: The Km and Kappm for the amino acid substrate were first calculated from Lineweaver-Burk plots. The Ki values were calculated from the Kappm vs [I] plot. The Ki values for the inhibitors with respect for the amino acid substrates were determined by measuring the apparent Km for the amino acid in the presence of saturating concentrations of both ATP and tRNA, and of various fixed concentrations of the inhibitor.
Chain of Aspartate--tRNA ligase (P21889 whole entry): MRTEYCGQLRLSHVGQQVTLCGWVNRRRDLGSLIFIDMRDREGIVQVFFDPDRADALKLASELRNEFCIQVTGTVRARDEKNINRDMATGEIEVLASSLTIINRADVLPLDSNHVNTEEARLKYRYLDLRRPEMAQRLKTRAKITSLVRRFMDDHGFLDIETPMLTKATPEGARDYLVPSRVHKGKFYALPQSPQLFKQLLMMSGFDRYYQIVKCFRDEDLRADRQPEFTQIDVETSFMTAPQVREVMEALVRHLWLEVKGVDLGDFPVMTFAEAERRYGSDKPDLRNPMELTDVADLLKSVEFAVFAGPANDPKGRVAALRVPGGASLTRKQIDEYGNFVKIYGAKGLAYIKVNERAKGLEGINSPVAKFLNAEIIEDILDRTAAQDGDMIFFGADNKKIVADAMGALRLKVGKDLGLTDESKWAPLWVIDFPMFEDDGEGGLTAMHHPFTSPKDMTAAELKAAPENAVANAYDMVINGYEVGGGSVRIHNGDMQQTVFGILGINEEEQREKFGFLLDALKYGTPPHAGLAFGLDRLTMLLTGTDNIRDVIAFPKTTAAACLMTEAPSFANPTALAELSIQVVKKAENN
In general, Ki refers to the equilibrium dissociation constant of an inhibitor or competing ligand from its target. Take `Nc1ncnc2c1ncn2[C@@H]1O[C@H](COS(=O)(=O)NC(=O)C(N)CC(=O)O)[C@@H](O)[C@H]1O` (stereo partly drawn) [3-amino-4-[({[(2R,3S,4R,5R)-5-(6-amino-9H-purin-9-yl)-3,4-dihydroxyoxolan-2-yl]methoxy}sulfonyl)amino]-4-oxobutanoic acid]: the Ki was determined as 0.015 µM. Take `Nc1ncnc2c1ncn2[C@@H]1O[C@H](COP(=O)(O)CC(=O)C(N)CC(=O)O)[C@@H](O)[C@H]1O` (stereo partly drawn) [3-amino-5-({[(2R,3S,4R,5R)-5-(6-amino-9H-purin-9-yl)-3,4-dihydroxyoxolan-2-yl]methoxy}(hydroxy)phosphoryl)-4-oxopentanoic acid]: the inhibition constant (Ki) amounted to 0.123 µM.

With `Nc1ncnc2c1ncn2[C@@H]1O[C@H](COP(=O)(O)OC[C@@H](N)CC(=O)O)[C@@H](O)[C@H]1O` [(3S)-3-amino-4-[({[(2R,3S,4R,5R)-5-(6-amino-9H-purin-9-yl)-3,4-dihydroxyoxolan-2-yl]methoxy}(hydroxy)phosphoryl)oxy]butanoic acid], the Ki is 45 µM.
